Test results as given in patent publication US20230365537A1, “POLO LIKE KINASE 4 INHIBITORS” (ORIC Pharmaceuticals, Inc., priority 2021, published 2023).

Assays:
[1] = target: human recombinant PLK4 (Homo sapiens (Human), UniProt O00444); experiment: PLK4 Biochemical Assay (ADP-Glo); settings: 0.5 nM PLK4, 8.0 µM ATP, 4.7 µM MBP, 6 hours at RT
Description: (§1) Activity of human recombinant PLK4 (ThermoFisher, cat #PV6396) was measured by quantification of adenosine diphosphate (ADP) using the ADP-Glo Kinase Assay Kit (Promega, cat #V9102). […] 5 µL of 1.0 nM PLK4 protein in assay buffer (50 mM HEPES, pH 7.5, 0.01% Brij-35, 0.01% BSA, 10 mM MgCl2, 1 mM EGTA, 1 mM DTT) was added to the plates. Test compounds and PLK4 were incubated for 15 minutes at room temperature (RT). […] Reactions were stopped and the remaining ATP depleted by adding 10 µL of ADP-Glo reagent (Promega, cat#V912B) and incubating for 40 minutes at RT. The simultaneous conversion of the remaining ADP to ATP and measurement of the newly synthesized ATP was achieved by addition of 20 µL Kinase Detection reagent (Promega, cat #V914B), incubation for 30 min at RT, and luminescence detection using the EnVision plate reader (PerkinElmer). […] The IC50 values reported in Table 2 were determined using four parameter non-linear regression curve fit.

[2] = target: human recombinant Aurora A (Homo sapiens (Human), UniProt O14965); experiment: Aurora A Kinase Biochemical Assay (ADP-Glo); settings: ratio of Aurora A IC50 to PLK4 IC50 (selectivity)
Description: as §1, with “Aurora A” for “PLK4”, “#PR5935A)” for “#PV6396)”, “5.0” for “1.0”, “Aurora A” for “PLK4 protein”, “10uL” for “10 µL”

[3] = target: human recombinant Aurora B (Homo sapiens (Human), UniProt Q96GD4); experiment: Aurora B Kinase Biochemical Assay (ADP-Glo); settings: ratio of Aurora B IC50 to PLK4 IC50 (selectivity)
Description: as §1, with “Aurora B” for “PLK4”, “#PR9210B)” for “#PV6396)”, “20” for “1.0”, “Aurora B” for “PLK4 protein”, “10uL” for “10 µL”

Chain of human recombinant Aurora A (O14965 whole entry): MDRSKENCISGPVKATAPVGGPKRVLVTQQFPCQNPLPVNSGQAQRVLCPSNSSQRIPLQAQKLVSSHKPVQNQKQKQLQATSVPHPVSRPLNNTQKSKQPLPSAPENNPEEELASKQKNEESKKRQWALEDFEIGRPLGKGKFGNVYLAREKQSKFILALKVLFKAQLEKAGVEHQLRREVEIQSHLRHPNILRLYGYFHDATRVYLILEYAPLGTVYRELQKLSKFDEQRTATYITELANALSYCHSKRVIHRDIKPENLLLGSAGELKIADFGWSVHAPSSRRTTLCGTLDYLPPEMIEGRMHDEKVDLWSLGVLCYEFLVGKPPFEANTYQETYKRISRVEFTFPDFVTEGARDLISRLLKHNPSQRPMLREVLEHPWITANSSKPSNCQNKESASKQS
Chain of human recombinant PLK4 (O00444 whole entry): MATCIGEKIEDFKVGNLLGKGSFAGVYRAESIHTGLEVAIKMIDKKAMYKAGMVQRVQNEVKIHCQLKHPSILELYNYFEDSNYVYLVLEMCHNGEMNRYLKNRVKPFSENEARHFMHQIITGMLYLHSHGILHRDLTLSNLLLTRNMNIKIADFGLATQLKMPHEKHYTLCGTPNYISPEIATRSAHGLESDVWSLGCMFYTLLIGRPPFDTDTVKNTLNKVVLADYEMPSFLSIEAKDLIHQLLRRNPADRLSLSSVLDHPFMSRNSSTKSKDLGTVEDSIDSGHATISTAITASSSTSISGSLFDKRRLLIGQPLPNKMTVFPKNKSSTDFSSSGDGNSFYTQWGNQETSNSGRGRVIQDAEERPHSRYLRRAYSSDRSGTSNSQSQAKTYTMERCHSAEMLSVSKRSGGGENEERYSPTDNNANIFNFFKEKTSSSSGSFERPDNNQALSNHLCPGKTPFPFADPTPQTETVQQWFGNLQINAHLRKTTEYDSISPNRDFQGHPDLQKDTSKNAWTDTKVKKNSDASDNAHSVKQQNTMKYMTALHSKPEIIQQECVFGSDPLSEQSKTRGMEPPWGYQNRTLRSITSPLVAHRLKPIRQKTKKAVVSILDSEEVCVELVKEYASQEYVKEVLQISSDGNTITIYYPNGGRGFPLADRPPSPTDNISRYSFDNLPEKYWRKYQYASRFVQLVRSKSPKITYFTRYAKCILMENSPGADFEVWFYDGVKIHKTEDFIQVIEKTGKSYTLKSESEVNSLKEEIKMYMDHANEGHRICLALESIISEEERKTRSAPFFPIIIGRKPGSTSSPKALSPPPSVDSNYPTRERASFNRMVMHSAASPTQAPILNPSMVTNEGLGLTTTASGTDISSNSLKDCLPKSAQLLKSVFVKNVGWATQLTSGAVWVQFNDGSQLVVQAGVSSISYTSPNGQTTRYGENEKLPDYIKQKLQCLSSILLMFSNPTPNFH
Chain of human recombinant Aurora B (Q96GD4 whole entry): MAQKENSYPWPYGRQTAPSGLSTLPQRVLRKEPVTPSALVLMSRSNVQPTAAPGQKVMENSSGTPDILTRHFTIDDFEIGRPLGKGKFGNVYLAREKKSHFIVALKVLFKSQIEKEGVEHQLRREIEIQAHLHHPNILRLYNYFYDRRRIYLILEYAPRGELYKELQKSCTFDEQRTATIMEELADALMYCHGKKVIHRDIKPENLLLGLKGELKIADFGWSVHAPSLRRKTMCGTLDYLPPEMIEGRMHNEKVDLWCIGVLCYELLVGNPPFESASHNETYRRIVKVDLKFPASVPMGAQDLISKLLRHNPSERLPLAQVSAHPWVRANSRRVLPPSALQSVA

| Compound | IC50 [1] | [Aurora A IC50 (nM)]/[PLK4 IC50 (nM)] [2] | [Aurora B IC50 (nM)]/[PLK4 IC50 (nM)] [3] |
| --- | --- | --- | --- |
| COc1ccc2c(c1)[C@]1(C[C@H]1c1ccc3c(Nc4cccc5c4OCC5)n[nH]c3c1)C(=O)N2 [Example 16, (1R,2S)-2-{3-[(2,3-dihydro-1-benzofuran-7-yl)amino]-1H-indazol-6-yl}-5′-methoxyspiro[cyclopropane-1,3′-indol]-2′(1′H)-one] | 0.00218 µM | 605.6855 | 11.76 |
| COc1ccc2c(c1)[C@]1(C[C@H]1c1ccc3c(Nc4ncccc4OC)n[nH]c3c1)C(=O)N2 [Example 17, (1R,2S)-5′-methoxy-2-{3-[(3-methoxypyridin-2-yl)amino]-1H-indazol-6-yl}spiro[cyclopropane-1,3′-indol]-2′(1′H)-one] | 0.0043 µM | 1145.911 | 34.9 |
| COc1ccc2c(c1)[C@]1(C[C@H]1c1ccc3c(Nc4cn(C)nc4OC)n[nH]c3c1)C(=O)N2 [Example 25, (1R,2S)-5′-methoxy-2-{3-[(3-methoxy-1-methyl-1H-pyrazol-4-yl)amino]-1H-indazol-6-yl}spiro[cyclopropane-13′-indol]-2′(1′H)-one] | 0.0342 µM | 249.6489 | 28.1 |
| COc1ccc2c(c1)[C@]1(C[C@H]1c1ccc3c(Nc4cnn5c4OCC5)n[nH]c3c1)C(=O)N2 [Example 30, (1R,2S)-2-{3-[(2,3-dihydropyrazolo[5,1-b][1,3]oxazol-7-yl)amino]-1H-indazol-6-yl}-5′-methoxyspiro[cyclopropane-1,3′-indol]-2′(1′H)-one] | 0.0312 µM | 36.2 | 6.188 |
| COc1ccc2c(c1)[C@]1(C[C@H]1c1ccc3c(Nc4cccc5c4OCC5=O)n[nH]c3c1)C(=O)N2 [Example 31, (1R,2S)-5′-methoxy-2-{3-[(3-oxo-2,3-dihydro-1-benzofuran-7-yl)amino]-1H-indazol-6-yl}spiro[cyclopropane-1,3′-indol]-2′(1′H)-one] | 0.00302 µM | 207.053 | 22.17 |
| COc1ccc2c(c1)[C@]1(C[C@H]1c1ccc3c(Nc4nccc5c4OCC5)n[nH]c3c1)C(=O)N2 [Example 32, (1R,2S)-2-{3-[(2,3-dihydrofuro[2,3-c]pyridin-7-yl)amino]-1H-indazol-6-yl}-5′-methoxyspiro[cyclopropane-1,3′-indol]-2′(1′H)-one] | 0.00394 µM | 911.8842 | 17.5546 |
| COc1ccc2c(c1)[C@]1(C[C@H]1c1ccc3c(Nc4nccc5c4OC[C@@H]5CO)n[nH]c3c1)C(=O)N2 [Example 33, (1R,2S)-2-(3-{[(3S)-3-(hydroxymethyl)-2,3-dihydrofuro[2,3-c]pyridin-7-yl]amino}-1H-indazol-6-yl)-5′-methoxyspiro[cyclopropane-1,3′-indol]-2′(1′H)-one] | 0.00591 µM | 355.9465 | 8.474 |
| COc1ccc2c(c1)[C@]1(C[C@H]1c1ccc3c(Nc4cc(N5CC(OC)C5)ncn4)n[nH]c3c1)C(=O)N2 [Example 35, (1R,2S)-5′-methoxy-2-(3-{[6-(3-methoxyazetidin-1-yl)pyrimidin-4-yl]amino}-1H-indazol-6-yl)spiro[cyclopropane-1,3′-indol]-2′(1′H)-one] | 0.00753 µM | 67.3 | 2.162 |
| COc1ccc2c(c1)[C@]1(C[C@H]1c1ccc3c(Nc4cc(N5CC(O)C5)ncn4)n[nH]c3c1)C(=O)N2 [Example 36, (1R,2S)-2-(3-{[6-(3-hydroxyazetidin-1-yl)pyrimidin-4-yl]amino}-1H-indazol-6-yl)-5′-methoxyspiro[cyclopropane-1,3′-indol]-2′(1′H)-one] | 0.00617 µM | 218.2083 | 5.701 |
| COc1ccc2c(c1)[C@]1(C[C@H]1c1ccc3c(Nc4ncnc(N5C6CCC5COC6)c4OC)n[nH]c3c1)C(=O)N2 [Example 37, (1R,2S)-2-(3-((6-(3-oxa-8-azabicydo[3.2.1]octan-8-yl)-5-methoxypyrimidin-4-yl)amino)-1H-indazol-6-yl)-5′-methoxyspiro[cydopropane-1,3′-indolin]-2′-one] | 0.0125 µM | 1799.358 | 49.51 |
| COc1ccc2c(c1)[C@]1(C[C@H]1c1ccc3c(Nc4cc(OCCO)ncn4)n[nH]c3c1)C(=O)N2 [Example 38, (1R,2S)-2-(3-{[6-(2-hydroxyethoxy)pyrimidin-4-yl]amino}-1H-indazol-6-yl)-5′-methoxyspiro[cyclopropane-1,3′-indol]-2′(1′H)-one] | 0.0141 µM | 43.69 | 2.761 |
| COc1ccc2c(c1)[C@]1(C[C@H]1c1ccc3c(Nc4cc(N5CCS(=O)(=O)CC5)ncn4)n[nH]c3c1)C(=O)N2 [Example 39, (1R,2S)-2-(3-((6-(1,1-dioxidothiomorpholino)pyrimidin-4-yl)amino)-1H-indazol-6-yl)-5′-methoxyspiro[cyclopropane-1,3′-indolin]-2′-one] | 0.0264 µM | 30.38 | 1.018 |
| COc1ccc2c(c1)[C@]1(C[C@H]1c1ccc3c(Nc4cc(N5CCCOCC5)ncn4)n[nH]c3c1)C(=O)N2 [Example 40, (1R,2S)-5′-methoxy-2-(3-{[6-(1,4-oxazepan-4-yl)pyrimidin-4-yl]amino}-1H-indazol-6-yl)spiro[cyclopropane-1,3′-indol]-2′(1′H)-one] | 0.0152 µM | 67.06 | 2.783 |
| COc1ccc2c(c1)[C@]1(C[C@H]1c1ccc3c(Nc4ncnc(N5CCC5)c4OC)n[nH]c3c1)C(=O)N2 [Example 42, (1R,2S)-2-(3-{[6-(azetidin-1-yl)-5-methoxypyrimidin-4-yl]amino}-1H-indazol-6-yl)-5′-methoxyspiro[cyclopropane-1,3′-indol]-2′(1′H)-one] | 0.0362 µM | 1053.808 | 42.3 |
| COc1ccc2c(c1)[C@]1(C[C@H]1c1ccc3c(Nc4ncnc(N5CC(O)C5)c4OC)n[nH]c3c1)C(=O)N2 [Example 43, (1R,2S)-2-(3-{[6-(3-hydroxyazetidin-1-yl)-5-methoxypyrimidin-4-yl]amino}-1H-indazol-6-yl)-5′-methoxyspiro[cyclopropane-1,3′-indol]-2′(1′H)-one] | 0.0145 µM | 1347.136 | 21.9 |
| COc1ccc2c(c1)[C@]1(C[C@H]1c1ccc3c(Nc4ncnc(N5CCCOCC5)c4OC)n[nH]c3c1)C(=O)N2 [Example 44, (1R,2S)-5′-methoxy-2-(3-{[5-methoxy-6-(1,4-oxazepan-4-yl)pyrimidin-4-yl]amino}-1H-indazol-6-yl)spiro[cyclopropane-1,3′-indol]-2′(1′H)-one] | 0.0207 µM | 1269.119 | 45.11 |
| COc1ccc2c(c1)[C@]1(C[C@H]1c1ccc3c(Nc4cc(N5CCC5)ncn4)n[nH]c3c1)C(=O)N2 [Example 45, (1R,2S)-2-(3-{[6-(azetidin-1-yl)pyrimidin-4-yl]amino}-1H-indazol-6-yl)-5′-methoxyspiro[cyclopropane-1,3′-indol]-2′(1′H)-one] | 0.0155 µM | 137.8309 | 4.603 |
